Entries after “also recorded” stand apart in the source; their conditions may differ. Square brackets hold non-standard residues; d marks the D form. Peptide text beside a SMILES is read from it. Nle = CCCC[C@H](N)C(=O)O
Experiments:
Hsp70 [1] = assay: Hsp70 induction in human microvascular endothelial cell line; format: cell-based; details: 4 hours ALLN 40 μg/ml, 30 min labeling with [3H]-leucine
Hsp70 [2] = assay: Hsp70 induction in Chinese hamster ovary (CHO) cells; format: cell-based; details: data not shown
[3] = test system: Hsp90, Hsp60, Hsp25, Hsp27, Hsp86, Hsp104, Bip and albumin; assay: Biosynthesis of other Hsp family members and related proteins in HepG2 cells (SDS-PAGE, immunoprecipitation); format: cell-based, human
Description: FIGS. 2A-2B: Effects of ALLN on Hsp25, Hsp60, Hsp90 and Bip biosynthesis. HepG2 cells were pre-treated and radiolabeled with/without ALLN for 4 hours as described in FIG. 1. Cell lysates were denatured and aliquoted for immunoprecipitation with anti-Hsp25, anti-Hsp60, anti-Hsp90, or anti-Bip antibodies respectively (1 μg/ml). Because the anti-Hsp90 antibody is of rat source, rabbit anti-rat IgG antibody was added after the first incubation and the incubation was extended for another 1 hour at 4° C. before collection with protein A-Sepharose. Immunoprecipitates were aliquoted for scintillation counting and plotted. Each value is presented as means±SD from three individual experiments.
FIGS. 7A-7B: Effects of ALLN on the biosynthesis of other members of Hsp family and related proteins. HepG2cells were pre-treated and radiolabeled with or without ALLN for 4 hours as described in FIG. 1. […]
HepG2 cells were preincubated for 4 hours in serum-free MEM and then radiolabeled with ^3H-Leucine (150 μCi/ml) in a serum-free, leucine-free medium. […] Cell lysates containing equal amounts of trichloroacetic acid (TCA)-insoluble radioactivity were used for immunoprecipitations by incubating with individual monoclonal antibody (1 μg/ml) for 2.5 hours at 4° C. […]

hsp70, i.e. hsp72, mRNA = assay: Northern blot of hsp70 (hsp72) mRNA in HepG2 cells; format: cell-based, human; details: ALLN 40 μg/ml, 4 hours at 37° C.
Description: After 4 hours treatment at 37° C., cells were harvested. (B). […] The total RNA was prepared, and equal amounts of the samples were loaded and run on a 1% formaldehyde-agarose gel, blotted onto a nylon membrane, and subsequently hybridized with specific synthetic oligonucleotide probes for hsp70 mRNA as described under Experimental Details. The position of 28S and 18S rRNA are shown for reference.
Equal amounts of tRNA samples (10 μg) were size-fractionated on a 1% agarose-formaldehyde gel according to the methods described (Maniatis, et al., 1982) and transferred to a piece of QIAGEN plus nylon membrane. To determine loading and transfer efficiency, RNA was stained with ethidium bromide before and after transfer. The membrane was baked for 30 min. at 80° C. in vacuo (a vacuum) followed by UV cross-linking. It was then incubated for 4 hours at 65° C. in a prehybridization mixture containing 10% dextran sulfate, 1% SDS, 1M sodium chloride, 50 mM Tris-HCl (pH 7.5) and 100 μg/ml denatured salmon sperm DNA. […] The membrane was then washed four times with 2×SSC, 0.1% SDS at room temperature, one time at 65° C. for 30 min., and one time at room temperature again for 5 min., and finally rinsed with 2×SSC at room temperature.

proteasomes = details: Rock, et al., 1994; cited from earlier work
[4] = test system: cysteine proteases, calpain and cathepsin B; details: Rock, et al., 1994; cited from earlier work

CCCC[C@@H](C=O)NC(=O)[C@H](CC(C)C)NC(=O)[C@H](CC(C)C)NC(C)=O [ALLN, N-acetyl-leucyl-leucyl-norleucinal] (Ac-Leu-Leu-[Nle]-aldehyde)
increment of Hsp70 level (Hsp70 [1]): 35 fold
cellular Hsp70 levels (Hsp70 [2]): increasing cellular Hsp70 levels
effect on Hsp90, Hsp60, Hsp25, Hsp27, Hsp86, Hsp104, Bip or albumin levels ([3]; ALLN 4 hours): no effects; also recorded: only Hsp70 was induced
level of a protein of about 80-90 kDa (whole-cell protein pattern, FIG. 2A) ([3]; ALLN-treated vs control): also increased but not as significantly as Hsp70
amount of hsp70, i.e. hsp72, mRNA (hsp70, i.e. hsp72, mRNA): increased dramatically
inhibition of proteasomes (proteasomes): potent inhibitors
activities against calpain and cathepsin B [4]: significant activities

— patent publication US20020111314A1, “Novel stimulation of gene expression and protein synthesis of heat shock protein 72/73 (Hsp 70)” (The Trustees of Columbia University, priority 1995, published 2002)
